KR20230116309A (priority 2022, dated 2023)
Where a name gives a salt, the structure may show the parent alone. Read-outs that look alike come from different tables or passages of the source.

Experiments:
[1] = test system: proteins involved in foot-and-mouth disease virus replication [구제역바이러스의 증식에 관여하는 단백질]; details: cited from earlier work
[2] = test system: foot-and-mouth disease virus O/SKR/Boeun/2017 [O/SKR/Boeun/2017 바이러스]; type: cell-based
LFBK cells [LFBK 세포] = test: Cytotoxicity by MTS assay (Test Example 1); type: cell-based, porcine; details: no virus, values in Table 1 (missing)
[3] = test system: foot-and-mouth disease virus O/SKR/Boeun/2017 [구제역바이러스(O/SKR/Boeun/2017)]; type: cell-based
[4] = test system: foot-and-mouth disease virus O/VIT/2013 [구제역바이러스 O/VIT/2013]; type: in vivo, C57BL/6 mouse; details: for survival rate: 16 h before challenge with 250 LD50, day 7
[5] = test system: porcine interferon alpha protein [돼지 인터페론 알파 단백질]; type: cell-based
IFN-α [인터페론 알파(IFN-α)] = test system: IFN-α [인터페론 알파(IFN-α)]; design: species or system Balb/C mouse; details: mouse, in vivo
IFN-γ [인터페론 감마(IFN-γ)] = test system: IFN-γ [인터페론 감마(IFN-γ)]; design: species or system Balb/C mouse; details: mouse, in vivo
IL-12 = test system: IL-12; design: species or system Balb/C mouse; details: mouse, in vivo
IL-6 = test system: IL-6; design: species or system Balb/C mouse; details: mouse, in vivo
IP-10 [IP-10(CXCL10)] = test system: IP-10 [IP-10(CXCL10)]; design: species or system Balb/C mouse; details: mouse, in vivo
[6] = biological target: T1, TLR7 (toll-like receptor 7) (Homo sapiens, UniProt Q9NYK1); details: oral administration; cited from earlier work
T1 sequence (Q9NYK1 27-1049): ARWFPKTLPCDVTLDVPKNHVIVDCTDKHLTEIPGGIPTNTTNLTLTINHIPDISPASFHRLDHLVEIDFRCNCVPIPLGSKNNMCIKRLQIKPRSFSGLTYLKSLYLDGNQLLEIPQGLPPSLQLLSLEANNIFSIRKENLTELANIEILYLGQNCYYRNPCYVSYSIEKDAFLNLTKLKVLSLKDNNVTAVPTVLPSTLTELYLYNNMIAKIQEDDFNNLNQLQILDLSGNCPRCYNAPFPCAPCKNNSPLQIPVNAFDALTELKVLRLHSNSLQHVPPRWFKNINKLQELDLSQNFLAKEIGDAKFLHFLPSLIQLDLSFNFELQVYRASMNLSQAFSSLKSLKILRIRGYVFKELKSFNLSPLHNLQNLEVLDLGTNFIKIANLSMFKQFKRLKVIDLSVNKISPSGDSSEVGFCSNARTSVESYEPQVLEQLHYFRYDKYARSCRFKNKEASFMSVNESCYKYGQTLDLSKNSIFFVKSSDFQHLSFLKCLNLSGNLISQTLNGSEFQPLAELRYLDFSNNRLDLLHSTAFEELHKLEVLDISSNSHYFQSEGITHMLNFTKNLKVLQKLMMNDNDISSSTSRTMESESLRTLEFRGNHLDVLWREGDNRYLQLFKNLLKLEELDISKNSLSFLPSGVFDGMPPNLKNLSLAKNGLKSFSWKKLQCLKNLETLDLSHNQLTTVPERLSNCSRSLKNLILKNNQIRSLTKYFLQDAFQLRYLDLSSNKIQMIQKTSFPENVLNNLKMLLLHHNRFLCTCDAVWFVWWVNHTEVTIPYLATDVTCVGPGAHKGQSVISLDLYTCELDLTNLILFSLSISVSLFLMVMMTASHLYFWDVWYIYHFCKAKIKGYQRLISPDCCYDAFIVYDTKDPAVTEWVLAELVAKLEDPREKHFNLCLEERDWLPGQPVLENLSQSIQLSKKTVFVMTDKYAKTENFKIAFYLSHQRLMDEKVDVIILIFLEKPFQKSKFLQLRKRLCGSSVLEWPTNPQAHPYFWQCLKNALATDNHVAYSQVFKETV

[7] = test system: interferon-stimulated gene [인터페론-자극 유전자(interferon-stimulated gene; ISG)]; details: oral administration, human and laboratory animals; cited from earlier work
[8] = test system: chronic hepatitis B virus [B형 만성 간염 바이러스]; details: oral administration, human and laboratory animals; cited from earlier work
[9] = test system: human hepatitis C virus [인간 간염 바이러스 C형(HCV)]; details: cited from earlier work
[10] = test system: human immunodeficiency virus [인간면역결핍 바이러스(HIV)]; details: cited from earlier work
[11] = test system: enterovirus 71 [엔테로바이러스 71(EV71)]; details: cited from earlier work

N=C(N)N [구아니딘(Guanidine)-HCl]
inhibition of proteins involved in FMDV replication [1]: 구제역바이러스의 증식에 관여하는 단백질을 억제

O=c1cnn([C@@H]2O[C@H](CO)[C@@H](O)[C@H]2O)c(=O)[nH]1 [6-아자우리딘(azauridine)]
inhibition of proteins involved in FMDV replication [1]: 구제역바이러스의 증식에 관여하는 단백질을 억제

CCCCOc1nc(N)c2c(n1)N(Cc1cccc(CN3CCCC3)c1)CC(=O)N2 [GS-9620, 베사톨리모드(Vesatolimod; GS-9620)]
selectivity index (CC50/EC50) ([2]; LFBK cells, 24 h pretreatment, 100TCID50 virus, 24 h after inoculation): ~650.5 | virus inhibitory effect ([2]; LFBK cells, MTS assay, values in Table 1 (missing)): 우수한 바이러스 억제효과 | selectivity index relative to ribavirin (fold higher) ([2]; compared with ribavirin): ~5 fold | cytotoxicity (LFBK cells [LFBK 세포]): 낮은 세포독성 | FMDV replication inhibitory effect, dose dependence ([3]; 2500~156.2 μM, 24 h pretreatment, 100 TCID50, 48 h): 용량에 비례하여 구제역바이러스 증식억제 효과를 발휘 | FMDV replication inhibitory effect compared with ribavirin ([3]; same concentration, P<0.05, 100 TCID50, 48 h): 같은 농도에서 더 우수한 바이러스 증식효과 | survival rate ([4]; 10 mg/kg i.p.): 100% | survival rate (duration of protection) ([4]; 10 mg/kg i.p., up to day 5 after administration (challenge 1, 3, 5 days after dosing, 250 LD50)): 100% | survival rate ([4]; printed dose 25 mg/kg ('halved'), i.p.): 80% | IFN-α protein induction [5]: IFN-α 단백질을 성공적으로 유도 | IFN-α induction (IFN-α [인터페론 알파(IFN-α)]): 유도되어 나타났다 | IFN-γ induction (IFN-γ [인터페론 감마(IFN-γ)]): 유도되어 나타났다 | IL-12 induction (IL-12): 증가가 확인된 | IL-6 induction (IL-6): 신속하게 또한 지속적으로 유도 | IP-10 induction (IP-10 [IP-10(CXCL10)]): 신속하게 또한 지속적으로 유도 | TLR7 agonist activity [6]: 효능제(agonist)로 작용 | induction of ISG expression [7]: 발현을 유도 | inhibition of hepatitis B virus [8]: B형 만성 간염 바이러스를 억제 | antiviral effect [9]: 항바이러스 효과 | antiviral effect [10]: 항바이러스 효과 | antiviral effect [11]: 항바이러스 효과

NC(=O)c1ncn([C@@H]2O[C@H](CO)[C@@H](O)[C@H]2O)n1 [리바비린, 리바비린(ribavirin)]
inhibition of proteins involved in FMDV replication [1]: 구제역바이러스의 증식에 관여하는 단백질을 억제
